Data on 35 compounds can be found in US6635636B1, “Substituted 6-benzyl-4-oxopyrimidines, process for their preparation and pharmaceutical compositions containing them” (Idenix Pharmaceuticals, Inc., priority 1998, dated 2003).

One may read the pEC50 as the negative decadic logarithm of the EC50, by convention in mol/L. As usually defined, the CC50 is the concentration that lowers cell viability or growth by half. Low values mean harm at low concentration, high ones better tolerance by the cells. The melting point is the temperature of the solid-liquid transition.

pEC50: −log10 of the molar value. Like-named read-outs stand apart in the source and are kept apart here. A value given as a limit tells only on which side of the number the result lay.

One data set has as its system HIV-1 (IIIB strain). Kind of data set: Anti-HIV-1 assay: inhibition of virus-induced cytopathicity in acutely infected MT-4 cells (MTT). The format is cell-based. To be noted: mean of at least two separate experiments. As for the experimental part: (§1) Compounds. Compounds were solubilized in DMSO at 200 mM and then diluted into culture medium.
(§2) Cells and viruses. MT-4, C8166, H9/IIIB and CEM cells were grown at 37° C. in a 5% CO2 atmosphere in RPMI 1640 medium, supplemented with 10% fetal calf serum (FCS), 100 UI/mL penicillin and 100 μg/mL streptomycin. Cell cultures were checked periodically for the absence of mycoplasma contamination with a MycoTect Kit (Gibco). Human immunodeficiency virus type-1 (HIV-1, IIIB strain) was obtained from supernatants of persistently infected H9/IIIB cells.
(§3) Anti-HIV assays. Activity of the compounds against HIV-1 and HIV-2 multiplication in acutely infected cells was based on the inhibition of virus-induced cytopathicity in MT-4 and C8166 cells, respectively. Briefly, 50 μL of culture medium containing 1×10^4 cells were added to each well of flat-bottom microtiter trays containing 50 μl of culture medium with or without various concentrations of the test compounds. Then 20 μL of an HIV suspension containing 100 CCID50 were added. After a 4-day incubation at 37° C., the number of viable cells was determined by the 3-(4,5-dimethylthiazol-[…])-2,5-diphenyltetrazolium bromide (MTT) method. Cytotoxicity of the compounds was evaluated in parallel with their antiviral activity. It was based on the viability of mock-infected cells, as monitored by the MTT method.

For a further data set, the system named is mock-infected MT-4 cells. Kind of data set: Cytotoxicity: viability of mock-infected cells by the MTT method. The format is cell-based. As for the experimental part:
as §1, §2, §3

[1] abbreviates: MT-4 cells, HIV-1, MTT method, read-out: EC50 (compound dose required to achieve 50% protection of MT-4 cells from HIV-1 induced cytopathogenicity).
Setting [2] is: HIV-1 infected MT-4 cells, MTT method, read-out: EC50: compound dose required to achieve 50% protection of MT-4 cells from HIV-1 induced cytopathogenicity.

Regarding `CC1CCC(C)C(Oc2nc(Cc3ccccc3)cc(=O)[nH]2)C1` (mixture of isomers) [MC 507], the negative-log EC50 (pEC50) in the data set on HIV-1 (IIIB strain) (setting [1]) was 5.46. The compound further returned a half-maximal cytotoxic concentration (CC50) in the data set with mock-infected MT-4 cells of 143 µM. As for `CC1CCC(Oc2nc(Cc3ccccc3)cc(=O)[nH]2)CC1C` (mixture of isomers) [MC 508], in the data set on HIV-1 (IIIB strain) (setting [1]), the pEC50 was 5.19. Half-maximal cytotoxicity in the data set with mock-infected MT-4 cells (CC50) was put at 58 µM.

As to `CC1CC(C)CC(Oc2nc(Cc3ccccc3)cc(=O)[nH]2)C1` (mixture of isomers) [MC 512], the pEC50 in the data set with HIV-1 (IIIB strain) (setting [1]) was 4.52. In the data set on mock-infected MT-4 cells, this compound returned a CC50 of over 200 µM. In the same order, the values of `Cc1c(Cc2ccccc2)nc(OC2CC(C)CCC2C)[nH]c1=O` (mixture of isomers) [MC 531] are 5.46 and 138 µM.

For the compound `CCC(C)Nc1nc(C(C)c2c(F)cccc2F)cc(=O)[nH]1` (mixture of isomers) [MC 1192], the pEC50 in the data set on HIV-1 (IIIB strain) (setting [2]) was 7.40. Further, the CC50 in the data set with mock-infected MT-4 cells turned out to be 86 µM.

As to `CCC(C)Sc1nc(C(c2ccccc2)c2ccccc2)cc(=O)[nH]1` (racemic) [MC 796], the pEC50 in the data set with HIV-1 (IIIB strain) (setting [1]) was under 4.21. The same compound registered a half-maximal cytotoxic concentration (CC50) in the data set on mock-infected MT-4 cells of 61 µM. On the same counts, the results for `CCC(C)Sc1nc(Cc2ccccc2C)cc(=O)[nH]1` (racemic) [MC 806] are 5.74 and over 200 µM. In the same order, the values of `CCC(C)Sc1nc(Cc2ccc(C)cc2)cc(=O)[nH]1` (racemic) [MC 809] are 6.22 and 200 µM. `CCC(C)Sc1nc(Cc2ccccc2[N+](=O)[O-])cc(=O)[nH]1` (racemic) [MC 817]: the pEC50 with HIV-1 (IIIB strain) (setting [1]) is 6.60. In the data set with mock-infected MT-4 cells, this compound yielded a CC50 of over 200 µM. Regarding `CCC(C)Sc1nc(Cc2ccc(Cl)cc2)cc(=O)[nH]1` (racemic) [MC 859], the negative-log EC50 (pEC50) in the data set on HIV-1 (IIIB strain) (setting [1]) was 5.30. The CC50 in the data set with mock-infected MT-4 cells came out at 120 µM.

In the case of `CCC(C)Sc1nc(Cc2ccc([N+](=O)[O-])cc2)cc(=O)[nH]1` (racemic) [MC 863], the pEC50 with HIV-1 (IIIB strain) (setting [1]) is 5.82. In the data set on mock-infected MT-4 cells, this compound gave a cytotoxic concentration (CC50) of 151 µM. Regarding `CCC(C)Sc1nc(Cc2ccccc2C(F)(F)F)cc(=O)[nH]1` (racemic) [MC 868], in the data set on HIV-1 (IIIB strain) (setting [1]), the negative logarithm of the EC50 (pEC50) is 4.49. The same compound came in with a CC50 with mock-infected MT-4 cells of over 200 µM.

For the compound `CCC(C)Sc1nc(Cc2cccc(F)c2)cc(=O)[nH]1` (racemic) [MC 884], in the data set with HIV-1 (IIIB strain) (setting [1]), the pEC50 is 6.15. This compound also gave a half-maximal cytotoxic concentration (CC50) with mock-infected MT-4 cells of over 200 µM. Turning to `CCC(C)Sc1nc(Cc2ccc(F)cc2)cc(=O)[nH]1` (racemic) [MC 889], the pEC50 in the data set with HIV-1 (IIIB strain) (setting [1]) was 5.06. This compound also came in with a CC50 in the data set with mock-infected MT-4 cells of over 200 µM. Consider `CC(C)Sc1nc(C(C)c2ccccc2)cc(=O)[nH]1` (racemic) [MC 890], for which the negative logarithm of the EC50 (pEC50) with HIV-1 (IIIB strain) (setting [1]) was 6.05. The CC50 in the data set on mock-infected MT-4 cells was over 200 µM.

Regarding `CC(c1ccccc1)c1cc(=O)[nH]c(SC2CCCC2)n1` (racemic) [MC 892], in the data set on HIV-1 (IIIB strain) (setting [1]), the pEC50 was 6.22. Moreover, the CC50 with mock-infected MT-4 cells was 159 µM. On the same counts, the results for `CCC(C)Sc1nc(Cc2cccc([N+](=O)[O-])c2)cc(=O)[nH]1` (racemic) [MC 897] are 6.40 and 157 µM. On the same counts, the results for `CCC(c1ccccc1)c1cc(=O)[nH]c(SC(C)C)n1` (racemic) [MC 899] are 6.10 and 200 µM. In the same order, the values of `CCC(c1ccccc1)c1cc(=O)[nH]c(SC2CCCC2)n1` (racemic) [MC 900] are 6.00 and over 200 µM. As for `CCC(c1ccccc1)c1cc(=O)[nH]c(SC2CCCCC2)n1` (racemic) [MC 903], in the data set on HIV-1 (IIIB strain) (setting [1]), the negative-log EC50 (pEC50) is 5.89. Also, the 50% cytotoxic concentration (CC50) in the data set on mock-infected MT-4 cells was over 200 µM. On the same counts, the results for `CCC(C)Sc1nc(Cc2ccc(C(F)(F)F)cc2)cc(=O)[nH]1` (racemic) [MC 959] are 4.60 and 200 µM. In the same order, the values of `CCC(C)Oc1nc(Cc2c(F)cccc2F)cc(=O)[nH]1` (racemic) [MC 1114] are 4.60 and 130 µM.

As for `Cc1c(C(C)c2c(F)cccc2F)nc(SC(C)C)[nH]c1=O` (racemic) [MC 1137], the negative logarithm of the EC50 (pEC50) in the data set on HIV-1 (IIIB strain) (setting [2]) is 8.15. The compound further displayed a CC50 in the data set on mock-infected MT-4 cells of 200 µM. Take `Cc1c(C(C)c2c(F)cccc2F)nc(SCC(C)C)[nH]c1=O` (racemic) [MC 1153]: the negative logarithm of the EC50 (pEC50) in the data set with HIV-1 (IIIB strain) (setting [2]) is 8.00. The compound also came in with a 50% cytotoxic concentration (CC50) with mock-infected MT-4 cells of over 200 µM. On the same counts, the results for `CNc1nc(C(C)c2c(F)cccc2F)c(C)c(=O)[nH]1` (racemic) [MC 1170] are 7.52 and 200 µM. In the same order, the values of `Cc1c(C(C)c2c(F)cccc2F)nc(SC2CCCCC2)[nH]c1=O` (racemic) [MC 1174] are 7.74 and over 200 µM. On to `CCCCSc1nc(C(C)c2c(F)cccc2F)c(C)c(=O)[nH]1` (racemic) [MC 1175], for which, in the data set on HIV-1 (IIIB strain) (setting [2]), the negative-log EC50 (pEC50) was 8.10. In the data set on mock-infected MT-4 cells, this compound came in with a CC50 of 112 µM. `CNc1nc(C(C)c2c(F)cccc2F)cc(=O)[nH]1` (racemic) [MC 1178]: the pEC50 with HIV-1 (IIIB strain) (setting [1]) was 6.96. Moreover, the CC50 in the data set with mock-infected MT-4 cells was determined as 106 µM. With `CC(c1cc(=O)[nH]c(NC2CCCCC2)n1)c1c(F)cccc1F` (racemic) [MC 1180], in the data set on HIV-1 (IIIB strain) (setting [2]), the pEC50 was 7.70. This compound also gave a cytotoxic concentration (CC50) in the data set with mock-infected MT-4 cells of 56 µM. Consider `Cc1c(C(C)c2c(F)cccc2F)nc(NC2CCCCC2)[nH]c1=O` (racemic) [MC 1181], for which the pEC50 in the data set on HIV-1 (IIIB strain) (setting [2]) is 7.52. In the data set with mock-infected MT-4 cells, this compound registered a CC50 of 58 µM. In the same order, the values of `CCCCNc1nc(C(C)c2c(F)cccc2F)c(C)c(=O)[nH]1` (racemic) [MC 1187] are 8.00 and 83 µM. On the same counts, the results for `CCCCNc1nc(C(C)c2c(F)cccc2F)cc(=O)[nH]1` (racemic) [MC 1189] are 7.52 and 52 µM. In the same order, the values of `CC(C)Nc1nc(C(C)c2c(F)cccc2F)cc(=O)[nH]1` (racemic) [MC 1191] are 7.52 and 115 µM. As to `Cc1c(Cc2c(F)cccc2F)nc(NC2CCCC2)[nH]c1=O` [MC1050, 2-Cyclopentylamino-6-(2,6-difluorophenylmethyl)-3,4-dihydro-5-methylpyrimidin-4-one], the melting point was 115 to 117 °C. As for `Cc1c([C@@H](C)c2c(F)cccc2F)nc(SC2CCCC2)[nH]c1=O` [MC 1047], the pEC50 in the data set on HIV-1 (IIIB strain) (setting [1]) was 8.05. For the same compound, in the data set with mock-infected MT-4 cells, the CC50 was over 200 µM.
